Data reported in PubChem BioAssay AID256 (DTP/NCI, 2004).
Toxic doses and inconclusive results are not listed. The calls were made as follows: active = survival T/C of 150% or more; inactive = T/C below 125% in these data.

Tested on: CD2F1 mice, L1210 leukemia ip, survival T/C
Test: NCI In Vivo Anticancer Drug Screen. Data for tumor model L1210 Leukemia (intraperitoneal) in CD2F1 (CDF1) mice
Settings: higher = longer survival
Method in brief: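 Vehicle-treated tumor-bearing mice served as controls (C) for compound-treated mice (T). Reported figure is T divided by C.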

[1] = endpoint: mean survival time, dose: 100.0 mg/kg/injection, schedule: Q01DX001 (ip), vehicle: saline with Tween-80
[2] = endpoint: mean survival time, dose: 200.0 mg/kg/injection, schedule: Q01DX001 (ip), vehicle: saline with Tween-80

Measured: T/C

CCC1Cc2c([nH]c(=O)n(C)c2=O)O1 (stereo unspecified)
inactive: endpoint: mean survival time, dose: 100.0 mg/kg/injection, schedule: Q01DX001 (ip), vehicle: saline 97 % of control | endpoint: mean survival time, dose: 200.0 mg/kg/injection, schedule: Q01DX001 (ip), vehicle: saline 97 % of control | endpoint: mean survival time, dose: 400.0 mg/kg/injection, schedule: Q01DX001 (ip), vehicle: saline 97 % of control

CC(/C=N\O)=N\O
inactive: [1] 97 % of control | [2] 103 % of control

O/N=C(/Cl)c1ccccn1
inactive: endpoint: mean survival time, dose: 1.88 mg/kg/injection, schedule: Q04DX003 (ip), vehicle: saline 102 % of control | endpoint: mean survival time, dose: 3.75 mg/kg/injection, schedule: Q04DX003 (ip), vehicle: saline 94 % of control | endpoint: mean survival time, dose: 7.5 mg/kg/injection, schedule: Q01DX001 (ip), vehicle: saline 101 % of control | endpoint: mean survival time, dose: 7.5 mg/kg/injection, schedule: Q04DX003 (ip), vehicle: saline 94 % of control

CC(Oc1ccc(Br)cc1Br)C(=O)O (stereo unspecified)
inactive: endpoint: mean survival time, dose: 100.0 mg/kg/injection, schedule: Q01DX009 (ip), vehicle: saline with Tween-80 97 % of control | endpoint: mean survival time, dose: 200.0 mg/kg/injection, schedule: Q01DX009 (ip), vehicle: saline with Tween-80 94 % of control | endpoint: mean survival time, dose: 400.0 mg/kg/injection, schedule: Q01DX009 (ip), vehicle: saline with Tween-80 94 % of control

O=C1Cc2cc3c(cc2C=C2CCCN12)OCO3
inactive: endpoint: mean survival time, dose: 25.0 mg/kg/injection, schedule: Q01DX009 (ip), vehicle: water 103 % of control | endpoint: mean survival time, dose: 50.0 mg/kg/injection, schedule: Q01DX009 (ip), vehicle: water 97 % of control | endpoint: mean survival time, dose: 100.0 mg/kg/injection, schedule: Q01DX009 (ip), vehicle: water 103 % of control | endpoint: mean survival time, dose: 400.0 mg/kg/injection, schedule: Q01DX009 (ip), vehicle: water 113 % of control

O=C1c2ccccc2C(=O)N1CC/C=C/c1ccc([N+](=O)[O-])cc1Cl
inactive: endpoint: mean survival time, dose: 100.0 mg/kg/injection, schedule: Q04DX003 (ip), vehicle: saline with Tween-80 98 % of control | endpoint: mean survival time, dose: 200.0 mg/kg/injection, schedule: Q04DX003 (ip), vehicle: saline with Tween-80 91 % of control | endpoint: mean survival time, dose: 400.0 mg/kg/injection, schedule: Q04DX003 (ip), vehicle: saline with Tween-80 100 % of control

Cc1ccc(C2=C(O)C(=O)C(c3ccc(C)cc3)=C(O)C2=O)cc1
inactive: endpoint: mean survival time, dose: 75.0 mg/kg/injection, schedule: Q01DX001 (ip), vehicle: other 105 % of control | endpoint: mean survival time, dose: 150.0 mg/kg/injection, schedule: Q01DX001 (ip), vehicle: other 102 % of control

CN(C)CCNc1ccc(O)c2c1C(=O)c1ccccc1C2=O
inactive: endpoint: mean survival time, dose: 10.0 mg/kg/injection, schedule: Q01DX009 (ip), vehicle: saline with Tween-80 94 % of control | endpoint: mean survival time, dose: 20.0 mg/kg/injection, schedule: Q01DX009 (ip), vehicle: saline with Tween-80 90 % of control | endpoint: mean survival time, dose: 40.0 mg/kg/injection, schedule: Q01DX009 (ip), vehicle: saline with Tween-80 107 % of control | endpoint: mean survival time, dose: 80.0 mg/kg/injection, schedule: Q01DX009 (ip), vehicle: saline with Tween-80 122 % of control

O=C(O)CC1C(=O)OC2C3COC(=O)c4cc(O)c(O)c(O)c4-c4c(cc(O)c(O)c4O)C(=O)OC2C(OC(=O)c2cc(O)c(O)c4c2C1C(O)C(=O)O4)C(OC(=O)c1cc(O)c(O)c(O)c1)O3 (stereo unspecified)
inactive: endpoint: median survival time, dose: 3.12 mg/kg/injection, schedule: Q01DX009 (ip), vehicle: saline 102 % of control | endpoint: median survival time, dose: 6.25 mg/kg/injection, schedule: Q01DX009 (ip), vehicle: saline 98 % of control | endpoint: median survival time, dose: 12.5 mg/kg/injection, schedule: Q01DX009 (ip), vehicle: saline 101 % of control | endpoint: median survival time, dose: 25.0 mg/kg/injection, schedule: Q01DX009 (ip), vehicle: saline 98 % of control | endpoint: median survival time, dose: 50.0 mg/kg/injection, schedule: Q01DX009 (ip), vehicle: saline 100 % of control

O=C(CCCN1CCC2(CC1)CNC(=O)N2c1ccccc1)c1ccc(F)cc1
inactive: [1] 101 % of control | [2] 98 % of control | endpoint: mean survival time, dose: 400.0 mg/kg/injection, schedule: Q01DX001 (ip), vehicle: saline with Tween-80 91 % of control

Cn1cnc([N+](=O)[O-])c1Sc1cn(C2CC(O)C(CO)O2)c(=O)[nH]c1=O (stereo unspecified)
inactive: endpoint: mean survival time, dose: 12.5 mg/kg/injection, schedule: Q01DX005 (ip), vehicle: water 102 % of control | endpoint: mean survival time, dose: 25.0 mg/kg/injection, schedule: Q01DX005 (ip), vehicle: water 102 % of control | endpoint: mean survival time, dose: 50.0 mg/kg/injection, schedule: Q01DX005 (ip), vehicle: water 104 % of control | endpoint: mean survival time, dose: 100.0 mg/kg/injection, schedule: Q01DX005 (ip), vehicle: water 98 % of control | endpoint: mean survival time, dose: 200.0 mg/kg/injection, schedule: Q01DX005 (ip), vehicle: water 106 % of control

O=C(Nc1ccccc1)O/N=C(/c1ccccc1)c1cccnc1
inactive: endpoint: mean survival time, dose: 100.0 mg/kg/injection, schedule: Q01DX001 (ip), vehicle: other 104 % of control | endpoint: mean survival time, dose: 200.0 mg/kg/injection, schedule: Q01DX001 (ip), vehicle: other 104 % of control | endpoint: mean survival time, dose: 400.0 mg/kg/injection, schedule: Q01DX001 (ip), vehicle: other 98 % of control

Cc1cn(C2OC(CO)C(O)C2Cl)c(=O)nc1N (stereo unspecified)
inactive: endpoint: median survival time, dose: 12.5 mg/kg/injection, schedule: Q01DX005 (ip), vehicle: saline 101 % of control | endpoint: median survival time, dose: 25.0 mg/kg/injection, schedule: Q01DX005 (ip), vehicle: saline 104 % of control | endpoint: median survival time, dose: 50.0 mg/kg/injection, schedule: Q01DX005 (ip), vehicle: saline 104 % of control | endpoint: median survival time, dose: 100.0 mg/kg/injection, schedule: Q01DX005 (ip), vehicle: saline 101 % of control | endpoint: median survival time, dose: 200.0 mg/kg/injection, schedule: Q01DX005 (ip), vehicle: saline 96 % of control
